Experimental data from ChEMBL document CHEMBL3988442, “University of Dundee, Small-Polar-MMV Screening Library” (2021).

System: Plasmodium falciparum
Assay: Calibr Malaria Delayed Death Assay SOP
Assay type: functional, organism-based
Settings: for IC50: Plasmodium falciparum

Row | SMILES | pIC50 | IC50 [nM]
1 | O=C(CN1CCCC(c2ccn[nH]2)C1)Nc1nc2c(s1)CCCC2 (centres undefined) | 6.624 | 248
2 | Cl.Fc1ccccc1Cn1c(C2CCNCC2)cc2cccnc21 | 6.466 | 293
3 | CCN1CCC(CNCc2cc(C)ccc2OC)C1 (centres undefined) | 6.037 | 1150
4 | CCCOc1ccc2ccccc2c1CN1CC[C@@]2(O)CCNC[C@H]2C1 | 6.043 | 924
5 | COc1ccc(N2CCCC3(C2)CN(c2nncs2)CCO3)cc1 (centres undefined) | 6.845 | 173
6 | COc1cc(CNCC(O)c2ccc(F)cc2F)cc2c1OCO2 (centres undefined) | 6.074 | 972
7 | Cc1ccc(-c2ccccc2CC2(C(=O)NC(C)C)CCCNC2)cc1 (centres undefined) | 6.259 | 491
8 | O=S(=O)(NC[C@H]1C[C@@H]2CCN1C[C@@H]2CN1CCCC1)c1ccc(Cl)cc1 | 5.945 | 1130
9 | Fc1ccc2c(C3=CCN(Cc4nnc(C5CCC5)o4)CC3)c[nH]c2c1 | 5.905 | 1700
10 | CN[C@@H](C)C(=O)N(Cc1cccc(C)c1)Cc1ccccc1OC | 6.428 | 316
11 | CCN1CCN(c2ccc(F)cc2C(C)NCc2ccccn2)CC1 (centres undefined) | 6.099 | 651
12 | Cc1cc(S(=O)(=O)N2CCC(N3CCC(O)C3)CC2)c(Cl)cc1Cl (centres undefined) | 5.897 | 958
13 | Cc1ncc(CN(C)C2CCCN(CCc3ccccc3)C2)n1C (centres undefined) | 6.013 | 783
14 | Fc1ccccc1C1(CNC2CCOC3(CCOCC3)C2)CCCC1 (centres undefined) | 6.12 | 796
15 | Cc1noc(C)c1CN1C[C@H]2CN(Cc3cccc(F)c3)C[C@H]2C1.O=C(O)C(F)(F)F.O=C(O)C(F)(F)F | 5.762 | 1220
16 | Fc1cccc(CN2C[C@@H]3CN(Cc4ccccn4)C[C@@H]3C2)c1.O=C(O)C(F)(F)F.O=C(O)C(F)(F)F | 6.169 | 531
17 | CC(NCCc1nccn1Cc1ccccc1)c1cccs1 (centres undefined) | 5.98 | 1290
18 | Cc1ccc(CN(c2cc(C)nc3nc(C(F)(F)F)nn23)C2CC2)cc1 | 6.41 | 282
19 | CC(NCCc1nccn1Cc1ccccc1)c1ccsc1 (centres undefined) | 6.094 | 1000
20 | CCc1cc(CNCc2ccccc2N(C)C2CCN(C)CC2)on1 | 6.107 | 828
21 | Cl.OC(CNCc1ccccc1C(F)(F)F)c1ccccc1 (centres undefined) | 6.179 | 709
22 | Cc1cccnc1CC(C)NC1Cc2ccccc2C1 (centres undefined) | 5.954 | 1290

Row | SMILES | pIC50 | IC50 [nM]
23 | CN1CC[C@H](N(Cc2ccccc2)Cc2ccccc2)C[C@H](O)C1 | 6.066 | 897
24 | Cc1ccccc1N1CCCN(CC2(O)CCCNC2)CC1 (centres undefined) | 6.443 | 314
25 | CN1CCC2(Cc3ccccc3CN(C(=O)Cc3cccc(Cl)c3)C2)C1 (centres undefined) | 6.082 | 836
26 | Fc1cnc(N2CCCC3(CCN(Cc4ccoc4)C3)C2)nc1.O=C(O)C(F)(F)F.O=C(O)C(F)(F)F (centres undefined) | 5.93 | 1210
27 | CC(NCC1CCN(CCO)CC1)c1ccc(Cl)cc1 (centres undefined) | 6.133 | 671
28 | Cc1cc(CN(C)c2nc(-c3ccccn3)nc3c2CCNCC3)n[nH]1 | 5.981 | 1080
29 | CC1(C)CC(N(Cc2ccccc2)Cc2cccnc2)CC(C)(C)N1.O=C(O)CC(O)(CC(=O)O)C(=O)O | 5.927 | 602
30 | O=C(C(CNCc1ccsc1)c1ccccc1)N1CCOCC1 (centres undefined) | 6.002 | 1450
31 | CO[C@@H]1CCN(Cc2ccoc2)C[C@@H]1Cc1ccccc1.O=C(O)C(F)(F)F | 5.938 | 1080
32 | COc1cccc(CNCc2cccc(Cl)c2)c1O | 6.064 | 914
33 | Fc1ccc(Sc2ccccc2CNC2=NCCN2)cc1.I | 5.875 | 1210
34 | COc1cc(CNCC(O)c2cccc(F)c2)cc2c1OCO2.Cl (centres undefined) | 6.133 | 729
35 | Cc1cccc(C)c1Nc1noc2c1CN(C(=O)c1ccn(C)n1)CC2 | 6.694 | 206
36 | COc1ccccc1C1(NCc2c(C)nc3c(C)cccn23)CCCC1.Cl | 6.178 | 748
37 | CCN1CCC2(CC1)CC(NCc1cccs1)c1ccccc1O2.O=C(O)C(F)(F)F.O=C(O)C(F)(F)F (centres undefined) | 6.431 | 287
38 | CC(C)[C@H](CO)Nc1nccc(-c2c[nH]nc2-c2ccncc2)n1 | 5.945 | 1130
39 | Cc1cn2c(n1)C(CNCc1ccc(C)s1)CCC2 (centres undefined) | 6.227 | 722
40 | Cc1cccc(NC(=O)c2cccc(OCc3nnnn3C)c2)n1 | 6.563 | 278
41 | Cn1ccnc1CNC1CCCOc2c1ccc1ccccc21 (centres undefined) | 5.947 | 1200
42 | CC(C)(C)n1cc(C2=CCN(CCN3CCCCCC3)CC2)cn1 | 5.987 | 994
43 | CN(CCO)C[C@@H]1CN(Cc2ccccc2-c2ccccc2)C[C@@H]1CO | 6.276 | 611
44 | CC(C)N1CCC2(CCCN(c3nccc(C(F)(F)F)n3)C2)CC1.O=C(O)C(F)(F)F | 6.114 | 550

Row | SMILES | pIC50 | IC50 [nM]
45 | COc1cc(CNCC(O)c2ccc(F)c(F)c2)cc2c1OCO2 (centres undefined) | 6.45 | 460
46 | Cn1cc(CN2CCCC(CCc3ccc(F)cc3)C2)cn1 (centres undefined) | 5.962 | 1060
47 | Cc1cccc(C)c1Nc1noc2c1CN(C(=O)c1ccnn1C)CC2 | 6.86 | 142
48 | COCCn1ccnc1CN(Cc1ccccn1)Cc1sccc1C | 6.065 | 650
49 | CN(Cc1ccoc1)C(=O)C1(Oc2ccc(Cl)cc2)CCNCC1 | 6.021 | 977
50 | OCCN1CCC(CNCc2ccccc2OC(F)(F)F)CC1 | 6.066 | 770
51 | CNc1nc(C)cc(NC2CCCN(C3Cc4ccccc4C3)C2)n1 (centres undefined) | 6.114 | 968
52 | Cc1cnn(CCNCc2nccn2Cc2ccccc2)c1 | 6.212 | 395
53 | Clc1cccc2c3c([nH]c12)CCN(Cc1cc2n(n1)CCCNC2)C3 | 6.194 | 965
54 | Cn1cc(CN2CCCC(CCc3ccc(F)cc3F)C2)cn1 (centres undefined) | 5.983 | 992
55 | CCN(CC1CN(Cc2nc(C3CC3)no2)CCO1)c1cccnn1 (centres undefined) | 5.75 | 1860
56 | CCN(CC)CCN(C)c1nc(-c2ccc(Cl)cc2)nc2c1CNC2 | 6.071 | 1020
57 | CNc1cc(C)nc(NC2CCCN(C3Cc4ccccc4C3)C2)n1 (centres undefined) | 6.074 | 775
58 | C[C@@H]1CN(C(=O)C2CCS(=O)(=O)CC2)CC[C@@]1(O)C1CCOCC1 | 6.055 | 998
59 | CN(C)c1ccccc1CN1CCCCC1CNS(C)(=O)=O (centres undefined) | 6.043 | 1080
60 | CCc1ccc2nc(NCCCN(CCO)CCO)cc(C)c2c1 | 6.107 | 809
61 | Cc1ncc(CN(Cc2ccccn2)Cc2ccccc2Cl)n1C.O=C(O)CC(O)(CC(=O)O)C(=O)O | 6.286 | 491
62 | CC(=O)N(c1ccc(F)cc1)c1nc(CN2CCCC2C(C)C)cs1 (centres undefined) | 6.177 | 479
63 | c1ccc(CCCN2CCN(c3ccc4nncn4n3)CC2)cc1 | 5.983 | 1410
64 | NC(=O)c1cccc2nc([C@H]3CCN(Cc4ccccn4)C3)[nH]c12 | 7.592 | 27.5
65 | O=C(O)C(F)(F)F.O=C(O)C(F)(F)F.O=C(O)C(F)(F)F.c1ccc(CN2CCCC3(CCN(Cc4cccs4)C3)C2)nc1 (centres undefined) | 6.204 | 735
66 | O=C(NCCN1CCCC1)C1(c2ccc(Cl)cc2)CCOCC1 | 6.003 | 714

Row | SMILES | pIC50 | IC50 [nM]
67 | CC(C)c1nn(C)c(Cl)c1CNCC(O)c1cccc(F)c1.Cl (centres undefined) | 6.252 | 392
68 | CC(C)C(=O)N1CCCC2(CCCN2CC2CCCC2)C1.O=C(O)C(F)(F)F (centres undefined) | 5.828 | 1150
69 | Cc1cc(C)n(C2CN(CC(O)c3cc(F)ccc3F)C2)n1 (centres undefined) | 6.757 | 223
70 | Cc1oc(-c2cc(F)cc(F)c2)nc1CN1C[C@@H](C)NC[C@@H]1C | 5.947 | 719
71 | CCCOc1ccccc1CN[C@@H]1CCC[C@H]1Cc1cc(C)no1.O=C(O)CC(O)(CC(=O)O)C(=O)O | 5.985 | 1230
72 | CN(Cc1ccco1)C[C@H]1OC[C@@H]2CCN(Cc3ccccn3)C[C@@H]21.O=C(O)C(F)(F)F.O=C(O)C(F)(F)F.O=C(O)C(F)(F)F | 5.905 | 1720
73 | COc1cccc(Cn2c(C3CCNCC3)cc3cccnc32)c1.Cl | 6.096 | 931
74 | CC(C)N1CCC(NCc2cccnc2N(C)Cc2ccccc2)CC1 | 6.416 | 447
75 | COc1ccc(-c2c(C)nn3c(=N)c(C#N)n[nH]c23)cc1OC | 6.297 | 538
76 | CC1CN(Cc2ccccc2Cn2cccn2)CCN1C (centres undefined) | 6.079 | 1080
77 | CCOc1ccc(Cl)cc1C1CCCCN1.Cl (centres undefined) | 6.229 | 612
78 | CCC[C@H]1CN(c2nc(CO)cs2)C[C@@H]1NC(=O)C1(COC)CC1 | 5.825 | 1600
79 | Cn1cc(CN2CCCC(CCc3ccccc3C(F)(F)F)C2)cn1 (centres undefined) | 6.083 | 726
80 | Cc1n[nH]cc1CNC1(c2ccc(F)cc2)CCCC1 | 6.295 | 584
81 | CCC(CC)(CN)NC(C)c1ccccc1 (centres undefined) | 6.003 | 924
82 | Cc1ccc(CN(Cc2cccnc2)C2CC(C)(C)NC(C)(C)C2)s1.O=C(O)CC(O)(CC(=O)O)C(=O)O | 6.05 | 727
83 | CN1CCCC1CNC(=O)CCCOc1cccc(Br)c1 (centres undefined) | 5.833 | 1170
84 | CN(C)[C@@H]1CCN(c2ncccn2)[C@H]1Cc1ccccc1 | 6.116 | 554
85 | COc1c(C)cnc(CN2CCC(N(C)C(C)C(N)=O)CC2)c1C (centres undefined) | 6.018 | 876
86 | Cc1cccc(C)c1Nc1noc2c1CN(C(=O)c1cn(C)cn1)CC2 | 6.709 | 190
87 | Cc1cc(CN2CCC(CNS(=O)(=O)c3ccc(Br)s3)CC2)c(C)o1 | 6.178 | 639
